In brackets after ≈: the same amount, converted by molar mass. Where two headings read alike, the source gives them in different places.
Assays:
Bacillus subtilis (Bs) = experiment: Minimum inhibitory concentration (MIC) in nutrient agar; format: cell-based, Bacillus subtilis ATCC 8473
Summary of the method: (§1)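 Growth inhibition was read visually after 48 h at 30° C on nutrient agar plates containing test compound at 500, 250, 100, 50, 25, 10, 5, 2.5, 1.0 or 0 ppm. Plates at pH 6.8 and pH 8.2 were inoculated with bacterial suspensions of 10^8 CFU/ml.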

Escherichia coli (Ec) = experiment: as above; format: cell-based, Escherichia coli ATCC 11229
Summary of the method: as §1

[1] = tested on: Klebsiella pneumoniae (Kp); experiment: as above; format: cell-based, Klebsiella pneumoniae ATCC 8308
Summary of the method: as §1

Proteus vulgaris (Pv) = experiment: as above; format: cell-based, Proteus vulgaris ATCC 881
Summary of the method: as §1

[2] = tested on: Salmonella choleraesuis (Sc); experiment: as above; format: cell-based, Salmonella choleraesuis ATCC 10708; conditions: Salmonella enterica
Summary of the method: as §1

[3] = tested on: Staphylococcus aureus (Sa); experiment: as above; format: cell-based, Staphylococcus aureus ATCC 6538
Summary of the method: as §1

Aspergillus niger (An) = experiment: Minimum inhibitory concentration (MIC) in malt yeast agar; format: cell-based, Aspergillus niger ATCC 16404; conditions: read-out: Minimum Inhibitory Concentration, An
Summary of the method: (§2)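 Compound from a 1% acetone/water solution was mixed into molten malt yeast agar (48° C) at 500, 250, 100, 50, 25, 10, 5, 2.5, 1.0 and 0 ppm and poured into plates. Plates dried 24 hours, were inoculated with saline/surfactant spore suspensions diluted 1:9 via replicator, and incubated at 30° C for 72 hours.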

Candida albicans (Ca) = experiment: as above; format: cell-based, Candida albicans ATCC 10231; conditions: read-out: Minimum Inhibitory Concentration, Ca
Summary of the method: (§3)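 Compound dispersed in malt yeast agar at final 500, 250, 100, 50, 25, 10, 5, 2.5, 1.0 and 0 ppm (from 1% acetone/water solution); plates dried 24 h, then inoculated with saline/octylphenoxy polyethoxy ethanol suspensions of 7-day cultures diluted 1:9. Incubated at 30° C; read at 48 h for yeast, 72 h for fungi.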

[4] = tested on: Penicillium chrysogenum (Pc); experiment: as above; format: cell-based, Penicillium chrysogenum ATCC 9480; conditions: read-out: Minimum Inhibitory Concentration, Pc
Summary of the method: as §2

[5] = tested on: Saccharomyces cerevisiae (Sc); experiment: as above; format: cell-based, Saccharomyces cerevisiae ATCC 4105; conditions: read-out: Minimum Inhibitory Concentration, Sc
Summary of the method: as §3

Trichoderma viride (Tv) = experiment: as above; format: cell-based, Trichoderma viride ATCC 8678; conditions: read-out: Minimum Inhibitory Concentration, Tv
Summary of the method: as §2

[6] = tested on: Aureobasidium pullulan (Ap); experiment: as above; format: cell-based, Aureobasidium pullulan ATCC 16622; conditions: read-out: Minimum Inhibitory Concentration, Ap
Summary of the method: as §2

Fusarium oxysporum (Fo) = experiment: as above; format: cell-based, Fusarium oxysporum ATCC 48112; conditions: read-out: Minimum Inhibitory Concentration, Fo
Summary of the method: as §2

[7] = 48 h, pH 6.8, read-out: Minimum Inhibitory Concentration, Bs
[8] = 48 h, pH 8.2, read-out: Minimum Inhibitory Concentration, Bs
[9] = 48 h, pH 6.8, read-out: Minimum Inhibitory Concentration, Ec
[10] = 48 h, pH 8.2, read-out: Minimum Inhibitory Concentration, Ec
[11] = 48 h, pH 6.8, read-out: Minimum Inhibitory Concentration, Kp
[12] = 48 h, pH 8.2, read-out: Minimum Inhibitory Concentration, Kp
[13] = 48 h, pH 6.8, read-out: Minimum Inhibitory Concentration, Pv
[14] = 48 h, pH 8.2, read-out: Minimum Inhibitory Concentration, Pv
[15] = 48 h, pH 6.8, read-out: Minimum Inhibitory Concentration, Sc
[16] = 48 h, pH 8.2, read-out: Minimum Inhibitory Concentration, Sc
[17] = 48 h, pH 6.8, read-out: Minimum Inhibitory Concentration, Sa
[18] = 48 h, pH 8.2, read-out: Minimum Inhibitory Concentration, Sa
[19] = pH 6.8, nutrient agar, 30° C., 48 hours, read-out: Minimum Inhibitory Concentration, Bs
[20] = pH 6.8, nutrient agar, 30° C., 48 hours, read-out: Minimum Inhibitory Concentration, Kp
[21] = pH 6.8, nutrient agar, 30° C., 48 hours, read-out: Minimum Inhibitory Concentration, Sa
[22] = malt yeast agar, 30° C., 72 hours for fungi
[23] = malt yeast agar, 30° C., 48 hours for yeast
[24] = malt yeast agar, 30° C., 48 hours for yeast and 72 hours for fungi
[25] = pH 8.2, nutrient agar, 30° C., 48 hours, read-out: Minimum Inhibitory Concentration, Sa

Compound | MIC (Bacillus subtilis (Bs); [7]) [µg/mL] | MIC (Bacillus subtilis (Bs); [8]) [µg/mL] | MIC (Escherichia coli (Ec); [9]) [µg/mL] | MIC (Escherichia coli (Ec); [10]) [µg/mL] | MIC [1, 12] [µg/mL] | MIC (Proteus vulgaris (Pv); [13]) [µg/mL] | MIC (Proteus vulgaris (Pv); [14]) [µg/mL] | MIC [2, 15] [µg/mL] | MIC [2, 16] [µg/mL] | MIC [3, 17] [µg/mL] | MIC [3, 18] [µg/mL] | MIC (Aspergillus niger (An); 72 h) [µg/mL] | MIC (Candida albicans (Ca); 48 h) [µg/mL] | MIC ([4]; 72 h) [µg/mL] | MIC ([5]; 48 h) [µg/mL] | MIC (Trichoderma viride (Tv); 72 h) [µg/mL] | MIC [6] [µg/mL] | MIC (Fusarium oxysporum (Fo); 72 h) [µg/mL] | MIC (Bacillus subtilis (Bs); [19]) [µg/mL] | MIC [1, 20] [µg/mL] | further results
N#CC1=C(C#N)Sc2nc3cc([N+](=O)[O-])c([N+](=O)[O-])cc3nc2S1 [B, 7,8-Dinitro-1,4-dithiino-(2,3-b)quinoxaline-2,3-dicarbonitrile] | 500 (≈ 1400 µM) | 25 (≈ 69.8 µM) | 250 (≈ 698 µM) | > 500 | > 500 | > 500 | > 500 | 500 (≈ 1400 µM) | > 500 | < 10 | < 10 | 25 (≈ 69.8 µM) | 25 (≈ 69.8 µM) | 10 (≈ 27.9 µM) | 25 (≈ 69.8 µM) | 50 (≈ 140 µM) | 5 (≈ 14 µM) | 25 (≈ 69.8 µM) |  |  | MIC [1, 11]: 250 µg/mL (≈ 698 µM)
N#CC1=C(C#N)Sc2nc3ccccc3nc2S1 [E, 1,4-dithiino-(2,3-b)-quinoxaline-2,3-dicarbonitrile] |  | > 500 | > 500 | > 500 | > 500 | > 500 | > 500 | > 500 | > 500 |  | < 10 |  |  |  |  | 100 (≈ 373 µM) |  | 50 (≈ 186 µM) | 50 (≈ 186 µM) | 500 (≈ 1860 µM) | MIC [3, 21]: 25 µg/mL (≈ 93.2 µM); MIC (Aspergillus niger (An); [22]): < 10 µg/mL; MIC (Candida albicans (Ca); [23]): < 10 µg/mL; MIC [4, 22]: < 10 µg/mL; MIC [5, 23]: < 10 µg/mL; MIC [6, 24]: < 10 µg/mL
N#CC(C#N)=C1Sc2nc3ccc(Cl)cc3nc2S1 [O, 6-chloro-1,3-dithiolo-(4,5-b)-quinoxaline-2-ylidene-propanedinitrile] | > 500 | > 500 | > 500 | > 500 | > 500 | > 500 | > 500 | > 500 | > 500 |  | > 500 |  |  |  |  |  |  |  |  | > 500 | MIC [3, 21]: > 500 µg/mL; MIC (Aspergillus niger (An); [22]): 500 µg/mL (≈ 1650 µM); MIC (Candida albicans (Ca); [23]): > 500 µg/mL; MIC [4, 22]: 500 µg/mL (≈ 1650 µM); MIC [5, 23]: > 500 µg/mL; MIC (Trichoderma viride (Tv); [22]): > 500 µg/mL; MIC [6, 24]: 500 µg/mL (≈ 1650 µM); MIC (Fusarium oxysporum (Fo); [22]): > 500 µg/mL
N#CC(C#N)=C1Sc2nc3cc([N+](=O)[O-])c([N+](=O)[O-])cc3nc2S1 [M, 6,7-dinitro-1,3-dithiolo-(4,5-b)-quinoxaline-2-ylidene-propanedinitrile] | 100 (≈ 279 µM) | 250 (≈ 698 µM) | > 500 | > 500 | > 500 | > 500 | > 500 | 500 (≈ 1400 µM) | > 500 | < 10 | 100 (≈ 279 µM) | 2.5 (≈ 6.98 µM) | 2.5 (≈ 6.98 µM) | 2.5 (≈ 6.98 µM) | 2.5 (≈ 6.98 µM) | 10 (≈ 27.9 µM) | 2.5 (≈ 6.98 µM) | 5 (≈ 14 µM) |  |  | MIC [1, 11]: 50 µg/mL (≈ 140 µM)
Cc1ccc2nc3c(nc2c1)SC(C#N)=C(C#N)S3 [D, 7-Methyl-1,4-dithiino-(2,3-b)quinoxaline-2,3-dicarbonitrile] |  | 250 (≈ 885 µM) | > 500 | > 500 | > 500 | > 500 | > 500 | > 500 | > 500 |  | 500 (≈ 1770 µM) | 50 (≈ 177 µM) | 50 (≈ 177 µM) | 50 (≈ 177 µM) | 25 (≈ 88.5 µM) | 100 (≈ 354 µM) |  | 50 (≈ 177 µM) | 25 (≈ 88.5 µM) | > 500 | MIC [3, 21]: 100 µg/mL (≈ 354 µM); MIC [6, 24]: 25 µg/mL (≈ 88.5 µM)
N#CC1=C(C#N)Sc2nc3cc([N+](=O)[O-])ccc3nc2S1 [A, 7-nitro-1,4-dithiino-(2,3-b)-quinoxaline-2,3-dicarbonitrile] |  |  |  | > 500 | 500 (≈ 1600 µM) |  | > 500 |  | > 500 | < 10 |  |  | 2.5 (≈ 7.98 µM) |  | 2.5 (≈ 7.98 µM) | 10 (≈ 31.9 µM) | 2.5 (≈ 7.98 µM) |  | < 10 | 25 (≈ 79.8 µM) | MIC (Bacillus subtilis (Bs); pH 8.2, nutrient agar, 30° C., 48 hours, read-out: Minimum Inhibitory Concentration, Bs): 100 µg/mL (≈ 319 µM); MIC (Escherichia coli (Ec); pH 6.8, nutrient agar, 30° C., 48 hours, read-out: Minimum Inhibitory Concentration, Ec): 25 µg/mL (≈ 79.8 µM); MIC (Proteus vulgaris (Pv); pH 6.8, nutrient agar, 30° C., 48 hours, read-out: Minimum Inhibitory Concentration, Pv): 50 µg/mL (≈ 160 µM); MIC ([2]; pH 6.8, nutrient agar, 30° C., 48 hours, read-out: Minimum Inhibitory Concentration, Sc): 50 µg/mL (≈ 160 µM); MIC [3, 25]: 100 µg/mL (≈ 319 µM); MIC (Fusarium oxysporum (Fo); [22]): 2.5 µg/mL (≈ 7.98 µM)
N#CC1=C(C#N)Sc2nc3cc(Cl)ccc3nc2S1 [C, 7-chloro-1,4-dithiino-(2,3-b)-quinoxaline-2,3-dicarbonitrile] |  | 25 (≈ 82.6 µM) | > 500 | > 500 | > 500 | > 500 | > 500 | > 500 | > 500 | 50 (≈ 165 µM) |  |  |  |  |  | 250 (≈ 826 µM) |  |  | 25 (≈ 82.6 µM) | > 500 | MIC [3, 25]: 50 µg/mL (≈ 165 µM); MIC (Aspergillus niger (An); [22]): 25 µg/mL (≈ 82.6 µM); MIC (Candida albicans (Ca); [23]): < 10 µg/mL; MIC [4, 22]: < 10 µg/mL; MIC [5, 23]: < 10 µg/mL; MIC [6, 24]: < 10 µg/mL; MIC (Fusarium oxysporum (Fo); [22]): 25 µg/mL (≈ 82.6 µM)
N#CC(C#N)=C1Sc2nc3ccc([N+](=O)[O-])cc3nc2S1 [L, 6-nitro-1,3-dithiolo-(4,5-b)-quinoxaline-2-ylidene-propanedinitrile] | 100 (≈ 319 µM) | > 500 | > 500 | > 500 | > 500 | > 500 | > 500 | > 500 | > 500 |  | > 500 | 2.5 (≈ 7.98 µM) |  | 2.5 (≈ 7.98 µM) |  |  | 5 (≈ 16 µM) |  |  | > 500 | MIC [3, 21]: 100 µg/mL (≈ 319 µM); MIC (Candida albicans (Ca); [23]): 10 µg/mL (≈ 31.9 µM); MIC [5, 23]: 5 µg/mL (≈ 16 µM); MIC (Fusarium oxysporum (Fo); [22]): 10 µg/mL (≈ 31.9 µM)

— patent US5200409A, “Composition and use of substituted 1,3-dithiolo-and 1,4-dithiinoquinoxalines as an antimicrobial” (The Dow Chemical Company, priority 1992, dated 1993)
